# Experimental data as given in patent EP0313782A2, “Antimycotic preparations” (BAYER AG, priority 1987, dated 1989).
# Tested on: Candida-Zellen
# Test: Antimycotic in vivo efficacy (oral) in mouse candidiasis
# Design: species or system Mäuse vom Typ SPF-CF₁
# Conditions: for Wirkung: mice infected i.v. with 1 - 2 x 10⁶ Candida cells, oral treatment 1 h before and 7 h after infection, 10 - 100 mg/kg each, survivors on day 6 p.i. (untreated controls about 5 %); for Wirkung (comparison with the known compounds (A) and (B)): same test, statement in words in the text
# Method: Antimykotische in-vivo-Wirksamkeit (oral) bei Mäusecandidose
# Mäuse vom Typ SPF-CF₁ wurden intravenös mit 1 - 2 x 10⁶ logarithmisch wachsenden Candida-Zellen, die in physiologischer Kochsalzlösung suspendiert werden, infiziert. Eine Stunde vor und sieben Stunden nach der Infektion werden die Tiere mit jeweils 10 - 100 mg/kg Körpergewicht der Präparate oral behandelt.
# Unbehandelte Tiere starben 3 bis 6 Tage post infektionem. Die Überlebensrate am 6.Tag post infektionem betrug bei unbehandelten Kontrolltieren etwa 5 %.
SMILES,Wirkung,Wirkung (comparison with the known compounds (A) and (B))
"OC(Cn1cncn1)(c1ccc(F)cc1F)C1(SC(F)(F)F)CC1 (stereo not drawn) [I-1, 1-(2,4-Difluorphenyl)-1-hydroxy-2-(1,2,4-triazol-1-yl)-1-(1-trifluormethylmercapto-cycloprop-1-yl)-ethan]",+++++ (sehr gute Wirkung = 90 % Überlebende am 6.Tag.p.i.),bessere Wirkung
"[O-][S+](C(F)(F)F)C1(C(O)(Cn2cncn2)c2ccc(F)cc2F)CC1 (stereo not drawn) [I-2, 1-(2,4-Difluorphenyl)-1-hydroxy-2-(1,2,4-triazol-1-yl)-1-(trifluormethylsulfoxy-cycloprop-1-yl)-ethan]",+++++ (sehr gute Wirkung = 90 % Überlebende am 6.Tag.p.i.),bessere Wirkung
OC(Cn1cncn1)(c1ccc(F)cc1)C1(SC(F)(F)F)CC1 (stereo not drawn) [I-4],+++++ (sehr gute Wirkung = 90 % Überlebende am 6.Tag.p.i.),bessere Wirkung
